One data set concerns Human fibroblast BJ. The data set is described as follows: Cytotoxicity MTT assay, BJ human fibroblast cells. The data set is classed as cell-based. The following applies: 48 hrs, ± SD from three independent experiments, NA: did not show activity at 30 µM. The method, then:
(§1) Cytotoxicity against BJ Human fibroblast cells, and anti-cancer activity against PC3, HeLa and MCF-7 cancer cell lines were evaluated by following the procedure as described in the literature (Supplementary Materials).
The Biological Activity Assays Protocols […]
of positive control – mean of O.D of negative control)*100). […]
(§2) Standard drug used in the MTT assay was doxorubicin. […]
B. Cytotoxicity assay Protocol (BJ Human fibroblast cells) […]
standard MTT (3-[4, 5-dimethylthiazole-2-yl]-2, 5-diphenyl-tetrazolium bromide) colorimetric assay (Price & J. McMillan1, 1990). For this purpose, BJ Human fibroblast cells were cultured in Dulbecco’s Modified Eagle Medium, supplemented with 10% of fetal bovine serum (FBS), 100 IU/ml of penicillin and 100 µg/ml of streptomycin and 2 mM L‐glutamine in 75 cm2 flasks, and kept in 5% CO2 incubator at 37 °C (Mannerström, Toimela, Sarkanen & Heinonen, 2017).
Exponentially growing cells were harvested, counted with haemocytometer and diluted with a particular medium. Cell culture with the concentration of 6x10^4cells/ml was prepared and introduced (100 µL/well) into 96-well plates. After overnight incubation, medium was removed and 200 µL of fresh medium was added with different concentrations of compounds (1 -30µM). After 48 hrs, 200 µL MTT (0.5 mg/ml) was added to each well and incubated further for 3 hrs.
Subsequently, 100µL of DMSO was added to each well. The extent of MTT reduction to formazan within cells was calculated by measuring the absorbance at 550 nm, using a micro plate reader (Spectra Max plus, Molecular Devices, CA, USA). The cytotoxicity was recorded as concentra tion causing 50% growth inhibition (IC50) for BJ cells. The percent inhibition was calculated by using the following […]
Following concentrations were used to calculate (in case) of IC50: […]

The test system of data set [1] is PC3 cells (Prostate Cancer). The data set is described as follows: PC3 cells (Prostate Cancer) MTT assay. Format: cell-based. The following applies: for IC50: MTT assay, 48 hrs, ± SD from three independent experiments, NA: did not show anticancer activity at 30 µM; for anticancer activity against PC3 prostate cancer cell line (in words): in comparison to doxorubicin. The method, then:
as §1
The Biological Activity Assays Protocols
A. PC3 cells (Prostate Cancer) assay […]
For this purpose, PC3 cells (Prostate Cancer) were cultured in Dulbecco’s Modified Eagle Medium, supplemented with 5% of fetal bovine serum (FBS), 100 IU/ml of penicillin and 100 µg/ml of streptomycin in 75 cm2 flasks, and kept in 5% CO2 incubator at 37 °C. Exponentially growing cells were harvested, counted with haemocytometer and diluted with a particular medium. Cell culture with the concentration of 1x10^5 cells/ml was prepared and introduced (100 µL/well) into 96-well plates. After overnight incubation, medium was removed and 200 µL of fresh medium was added with different concentrations of compounds (1-30µM). After 48 hrs, 200 µL MTT (0.5 mg/ml) was added to each well and incubated further for 4 hrs. Subsequently, 100µL of DMSO was added to each well. The extent of MTT reduction to formazan within cells was calculated by measuring the absorbance at 570 nm, using a micro plate reader (Spectra Max plus, Molecular Devices, CA, USA). The cytotoxicity was recorded as concentration causing 50% growth inhibition (IC50) for PC3 cells. The percent inhibition was calculated by using the following formula: […]
(§3) of positive control – mean of O.D of negative control)*100).
(§4) The results (% inhibition) were processed by using Soft- Max Pro software (Molecular Device, USA).
Standard drug used in the MTT assay was doxorubicin.
(§5) 1. Mosmann T. Rapid colorimetric assay for cellular growth and survival: application to proliferation and cytotoxicity assays. J Immunol Meth 1983, 65, 55–63. […]

For data set [2], the system named is HeLa cells (Cervical Cancer). In words: HeLa cells (Cervical Cancer) MTT assay. Conditions: Homo sapiens, HeLa, 48 h, ± SD from three independent experiments, NA: did not show anticancer activity at 30 µM. Format: cell-based. The procedure:
Cytotoxicity against BJ Human fibroblast cells, and anti-cancer activity against PC3, HeLa and MCF-7 cancer cell lines were evaluated by following the procedure as described in the literature (Supplementary Materials). […]
as §3, §4
Following concentrations were used to calculate (in case) of IC50:
as §2
C. HeLa cells (Cervical Cancer) assay
Cytotoxic activity of compounds was evaluated in 96-well flat-bottomed micro plates by using the standard MTT (3-[4, 5-dimethylthiazole-2-yl]-2, 5-diphenyl-tetrazolium bromide) colorimetric assay40.
For this purpose, HeLa cells (Cervical Cancer) were cultured in Minimum Essential Medium Eagle, supplemented with 5% of fetal bovine serum (FBS) , 100 IU/ml of penicillin and 100 µg/ml of streptomycin in 75 cm2 flasks, and kept in 5% CO2 incubator at 37 °C. Exponentially growing cells were harvested, counted with haemocytometer and diluted with a particular medium. Cell culture with the concentration of 6x10^4 cells/ml was prepared and introduced (100 µL/well) into 96 -well plates. After overnight incubation, medium was removed and 200 µL of fresh medium was added with different concentrations of compounds (1-30µM). After 48 hrs, 200 µL MTT (0.5 mg/ml) was added to each well and incubated further for 4 hrs. Subsequently, 100µL of DMSO was added to each well. The extent of MTT reduction to formazan within cells was calculated by measuring the absorbance at 570 nm, using a micro plate reader (Spectra Max plus, Molecular Devices, CA, USA). The cytotoxicity was recorded as concentration causing 50% growth inhibition (IC 50) for HeLa. The percent inhibition was calculated by using the following formula: […]
The results (% inhibition) were processed by using Soft - Max Pro software (Molecular Device, USA).
as §5

In turn, `O=C(CC(c1cc2ccccc2o1)c1c[nH]c2ccccc12)c1ccc(Br)cc1` (centres unmarked) [Compound 3d, 3-(Benzofuran-2-yl)-1-(4-bromophenyl)-3-(1H-indol-3-yl)propan-1-one] displayed a melting point of 108 to 109 °C. Besides, in the data set with Human fibroblast BJ, the IC50 is > 30 µM. Besides, the half-maximal inhibitory concentration (IC50) in data set [1] (Homo sapiens, PC-3, 48 h) is 26.3 ± 0.8 µM. It took 12.6 ± 0.4 µM to reach half-maximal inhibition in data set [2] (IC50).
For `O=C(CC(c1cc2ccccc2o1)c1c[nH]c2cc(F)ccc12)c1ccc(Br)cc1` (centres unmarked) [Compound 3e, 3-(Benzofuran-2-yl)-1-(4-bromophenyl)-3-(6-fluoro-1H-indol-3-yl)propan-1-one], in that order: 123 to 124 °C, > 30 µM, 7.8 ± 0.4 µM and 13.6 ± 0.4 µM.
`O=C(CC(c1cc2ccccc2o1)c1c[nH]c2cc(F)ccc12)c1ccc(Cl)cc1` (centres unmarked) [Compound 3g, 3-(Benzofuran-2-yl)-1-(4-chlorophenyl)-3-(6-fluoro-1H-indol-3-yl)propan-1-one]: the melting point fell in the range of 112 to 113 °C. Further, in the data set with Human fibroblast BJ, the IC50 is > 30 µM. The molecule further came in with an IC50 in data set [1] (Homo sapiens, PC-3, 48 h) of 22 ± 1.3 µM. In addition, the IC50 in data set [1] is 20 ± 1.3 µM. This molecule displayed an IC50 in data set [2] of 14.7 ± 1.1 µM.
For the molecule `O=C(CC(c1cc2ccccc2s1)c1c[nH]c2ccccc12)c1ccc(Br)cc1` (centres unmarked) [Compound 3h, 3-(Benzo[b]thiophen-2-yl)-1-(4-bromophenyl)-3-(1H-indol-3-yl)propan-1-one], the melting point was 121 to 122 °C. Further, in the data set on Human fibroblast BJ, the IC50 was > 30 µM. Also, in data set [1] (Homo sapiens, PC-3, 48 h), 29.7 ± 0.4 µM corresponded to half-maximal inhibition (IC50).
Take `O=C(CC(c1cc2ccccc2o1)c1c[nH]c2cc(F)ccc12)c1ccccc1[N+](=O)[O-]` (centres unmarked) [Compound 3i, 3-(Benzofuran-2-yl)-3-(6-fluoro-1H-indol-3-yl)-1-(2-nitrophenyl)propan-1-one]: the melting point was 139 to 140 °C. Moreover, the “anticancer activity against PC3 prostate cancer cell line (in words)” value in data set [1] is listed as “complete loss of anticancer activity”. In addition, the IC50 in data set [2] turned out to be 15.2 ± 0.6 µM.
`O=C(CC(c1cc2ccccc2o1)c1c[nH]c2ccc(Br)cc12)c1ccccc1[N+](=O)[O-]` (centres unmarked) [Compound 3j, 3-(Benzofuran-2-yl)-3-(5-bromo-1H-indol-3-yl)-1-(2-nitrophenyl)propan-1-one] yielded a melting point of 173 to 174 °C. The molecule further displayed an IC50 in data set [1] (Homo sapiens, PC-3, 48 h) of 16 ± 0.1 µM. Moreover, in data set [2], the half-maximal inhibitory concentration (IC50) amounted to 17.3 ± 0.7 µM.
`O=C(CC(c1cc2ccccc2o1)c1c[nH]c2ccccc12)c1ccccc1[N+](=O)[O-]` (centres unmarked) [Compound 3k, 3-(Benzofuran-2-yl)-3-(1H-indol-3-yl)-1-(2-nitrophenyl)propan-1-one] registered a melting point of 154 to 155 °C. Further, the IC50 in data set [2] was determined as 14.9 ± 0.6 µM.
Consider `COc1cccc(C(=O)CC(c2cc3ccccc3o2)c2c[nH]c3ccccc23)c1` (centres unmarked) [Compound 3l, 3-(Benzofuran-2-yl)-3-(1H-indol-3-yl)-1-(3-methoxyphenyl)propan-1-one], for which the melting point was 162 to 163 °C. Besides, in the data set with Human fibroblast BJ, the IC50 is > 30 µM. In data set [1] (Homo sapiens, PC-3, 48 h), this molecule registered an IC50 of 16.3 ± 1.6 µM. This molecule yielded an IC50 in data set [2] of 11.1 ± 0.6 µM.
Molecule `O=C(CC(c1cc2ccccc2s1)c1c[nH]c2ccccc12)c1ccccc1` (centres unmarked) [Compound 3n, 3-(Benzo[b]thiophen-2-yl)-3-(1H-indol-3-yl)-1-phenylpropan-1-one] returned a melting point of 159 to 160 °C. The IC50 with Human fibroblast BJ was > 50 µM. This molecule displayed an IC50 in data set [1] (Homo sapiens, PC-3, 48 h) of 20.4 ± 0.4 µM. The IC50 in data set [2] amounted to 12.4 ± 0.2 µM.
Consider `O=C(CC(c1cc2ccccc2s1)c1c[nH]c2ccccc12)c1ccc(Cl)cc1` (centres unmarked) [Compound 3o, 3-(Benzo[b]thiophen-2-yl)-1-(4-chlorophenyl)-3-(1H-indol-3-yl)propan-1-one], for which the melting point was 150 to 151 °C. Further, the IC50 in the data set with Human fibroblast BJ was > 50 µM. Moreover, inhibition in data set [1] (Homo sapiens, PC-3, 48 h) was half-maximal at 29.7 ± 0.1 µM (IC50). Further, the IC50 in data set [2] came to 13.8 ± 0.3 µM.
For `O=C(CC(c1cc2ccccc2s1)c1c[nH]c2ccccc12)c1ccc(F)cc1` (centres unmarked) [Compound 3p, 3-(Benzo[b]thiophen-2-yl)-1-(4-fluorophenyl)-3-(1H-indol-3-yl)propan-1-one], the IC50 in the data set with Human fibroblast BJ is > 50 µM; in data set [1] (Homo sapiens, PC-3, 48 h), 27.6 ± 0.1 µM; in data set [2] it was 12.7 ± 0.1 µM.
Take `O=C(CC(c1cc2ccccc2s1)c1c[nH]c2ccccc12)c1ccc(C(F)(F)F)cc1` (centres unmarked) [Compound 3q, 3-(Benzo[b]thiophen-2-yl)-3-(1H-indol-3-yl)-1-(4-(trifluoromethyl)phenyl)propan-1-one]: the melting point fell in the range of 165 to 166 °C. Further, in the data set with Human fibroblast BJ, the half-inhibitory concentration (IC50) is > 50 µM. Moreover, half-maximal inhibition in data set [1] (Homo sapiens, PC-3, 48 h) (IC50) was put at 18 ± 0.3 µM. In data set [2], this molecule gave an IC50 of 18.8 ± 0.2 µM.
Turning to `COc1ccccc1C(=O)CC(c1cc2ccccc2o1)c1c[nH]c2ccccc12` (centres unmarked) [Compound 3r, 3-(Benzofuran-2-yl)-3-(1H-indol-3-yl)-1-(2-methoxyphenyl)propan-1-one], the melting point was in the range of 67 to 68 °C. Moreover, half-maximal inhibition in data set [1] (Homo sapiens, PC-3, 48 h) (IC50) required 20.4 ± 0.4 µM. Further, the “anticancer activity against PC3 prostate cancer cell line (in words)” value in data set [1] is “inactive”. This molecule gave an IC50 in data set [2] of 12.4 ± 0.2 µM.

(Values after article PMC8070033, “Bimetallic Iron–Palladium Catalyst System as a Lewis-Acid for the Synthesis of Novel Pharmacophores Based Indole Scaffold as Anticancer Agents” (Molecules, 2021).)
